In patent US8969325B2, “TRPV1 antagonists” (AbbVie Inc., priority 2011, dated 2015):

How the values were obtained:
human TRPV1 [1] = target: T1, human TRPV1 (Homo sapiens (Human), UniProt Q8NER1); test: Capsaicin Activation Assay (intracellular Ca2+, FLIPR); assay type: cell-based; conditions: recombinant HEK293 cells expressing hTRPV1, 50 nM capsaicin
Method in brief: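 Stably transfected HEK293 cells expressing human TRPV1 cDNA, plated the day before in poly-D-lysine plates. Compounds serially diluted from 10 mM DMSO stocks; intracellular Ca2+ fluorescence read on FLIPR at 1 to 5 second intervals.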

human TRPV1 [2] = target: T1, human TRPV1; test: Acid Activation Assay (pH 5.0, intracellular Ca2+, FLIPR); assay type: cell-based; conditions: percentage of the maximal pH 5.0-induced response remaining; recombinant HEK293 hTRPV1 cells; maximum concentration tested 37.5 μM
Method in brief: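 HEK293 cells stably expressing recombinant hTRPV1, loaded with Calcium-4 dye 90-120 min at 25° C. Compounds added over a 12-point half-log range (top 37.5 μM), then pH 5.0 DPBS/MES challenge after 3 min; FLIPR peak fluorescence over baseline given as % of maximal pH 5.0 response.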

T1 sequence (Q8NER1 whole entry): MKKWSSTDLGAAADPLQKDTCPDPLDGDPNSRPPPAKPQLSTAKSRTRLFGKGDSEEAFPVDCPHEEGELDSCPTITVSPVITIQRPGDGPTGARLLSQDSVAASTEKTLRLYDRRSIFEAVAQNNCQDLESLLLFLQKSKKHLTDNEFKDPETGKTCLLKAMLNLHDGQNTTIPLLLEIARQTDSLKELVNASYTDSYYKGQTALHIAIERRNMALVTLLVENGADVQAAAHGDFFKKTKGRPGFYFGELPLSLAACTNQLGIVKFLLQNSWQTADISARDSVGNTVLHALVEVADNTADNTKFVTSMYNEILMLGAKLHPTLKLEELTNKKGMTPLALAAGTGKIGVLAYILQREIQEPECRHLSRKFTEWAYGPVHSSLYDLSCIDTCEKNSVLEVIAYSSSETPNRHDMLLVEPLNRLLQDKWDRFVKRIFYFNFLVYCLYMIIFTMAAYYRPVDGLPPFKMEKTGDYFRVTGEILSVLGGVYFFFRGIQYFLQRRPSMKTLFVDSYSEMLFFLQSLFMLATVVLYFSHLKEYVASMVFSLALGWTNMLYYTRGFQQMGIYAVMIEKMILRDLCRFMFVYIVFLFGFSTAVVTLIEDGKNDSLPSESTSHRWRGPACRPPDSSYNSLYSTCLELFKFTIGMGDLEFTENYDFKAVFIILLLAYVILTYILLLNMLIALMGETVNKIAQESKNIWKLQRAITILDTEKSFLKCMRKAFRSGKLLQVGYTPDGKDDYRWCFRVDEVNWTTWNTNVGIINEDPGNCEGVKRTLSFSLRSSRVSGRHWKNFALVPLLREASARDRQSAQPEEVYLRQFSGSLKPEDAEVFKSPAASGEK

| SMILES | IC50 (human TRPV1 [1]) [nM] | human TRPV1 H^+ (max % remain) (human TRPV1 [2]) [%] |
| --- | --- | --- |
| CN1C(=O)CCc2ccc(NC(=O)N[C@@H]3CC(CF)(CF)Oc4cc(F)ccc43)cc21 [Example 296, 1-[(4R)-7-fluoro-2,2-bis(fluoromethyl)-3,4-dihydro-2H-chromen-4-yl]-3-(1-methyl-2-oxo-1,2,3,4-tetrahydroquinolin-7-yl)urea] | 130 | 68 |
| CN1C(=O)CCc2ccc(NC(=O)N[C@@H]3CC(C)(C)Oc4cc(Br)ccc43)cc21 [Example 297, 1-[(4R)-7-bromo-2,2-dimethyl-3,4-dihydro-2H-chromen-4-yl]-3-(1-methyl-2-oxo-1,2,3,4-tetrahydroquinolin-7-yl)urea] | 130 | 67 |
| CN1C(=O)CCc2ccc(NC(=O)N[C@@H]3C[C@@](C)(C(F)(F)F)Oc4ccccc43)cc21 [Example 298, 1-(1-methyl-2-oxo-1,2,3,4-tetrahydroquinolin-7-yl)-3-[(2S,4R)-2-methyl-2-(trifluoromethyl)-3,4-dihydro-2H-chromen-4-yl]urea] | 67 | 69 |
| CN1C(=O)CCc2ccc(NC(=O)N[C@@H]3CC(C)(C)Oc4c3ccc(F)c4F)cc21 [Example 299, 1-[(4R)-7,8-difluoro-2,2-dimethyl-3,4-dihydro-2H-chromen-4-yl]-3-(1-methyl-2-oxo-1,2,3,4-tetrahydroquinolin-7-yl)urea] | 54 | 84 |
| O=C(Nc1ccc2c(c1)NC(=O)C(N1CCOCC1)C2)N[C@@H]1CC(CF)(CF)Oc2cc(Cl)ccc21 (stereo partly drawn) [Example 300, 1-[(4R)-7-chloro-2,2-bis(fluoromethyl)-3,4-dihydro-2H-chromen-4-yl]-3-[3-(morpholin-4-yl)-2-oxo-1,2,3,4-tetrahydroquinolin-7-yl]urea] | 62 | 75 |
| CC1(C)C[C@@H](NC(=O)Nc2ccc3c(c2)NC(=O)C(N2CCOCC2)C3)c2ccc(F)cc2O1 (stereo partly drawn) [Example 301, 1-[(4R)-7-fluoro-2,2-dimethyl-3,4-dihydro-2H-chromen-4-yl]-3-[3-(morpholin-4-yl)-2-oxo-1,2,3,4-tetrahydroquinolin-7-yl]urea] | 1300 | 60 |
| O=C(Nc1ccc2c(c1)NC(=O)C(N1CCCOCC1)C2)N[C@@H]1CC(CF)(CF)Oc2cc(Cl)ccc21 (stereo partly drawn) [Example 302, 1-[(4R)-7-chloro-2,2-bis(fluoromethyl)-3,4-dihydro-2H-chromen-4-yl]-3-[3-(1,4-oxazepan-4-yl)-2-oxo-1,2,3,4-tetrahydroquinolin-7-yl]urea] | 200 | 36 |
| CC1(C)C[C@@H](NC(=O)Nc2ccc3c(c2)NC(=O)C(N2CCCOCC2)C3)c2ccc(F)cc2O1 (stereo partly drawn) [Example 303, 1-[(4R)-7-fluoro-2,2-dimethyl-3,4-dihydro-2H-chromen-4-yl]-3-[3-(1,4-oxazepan-4-yl)-2-oxo-1,2,3,4-tetrahydroquinolin-7-yl]urea] | 610 | 2 |
| CN(CCO)C1Cc2ccc(NC(=O)N[C@@H]3CC(CF)(CF)Oc4cc(Cl)ccc43)cc2NC1=O (stereo partly drawn) [Example 304, 1-[(4R)-7-chloro-2,2-bis(fluoromethyl)-3,4-dihydro-2H-chromen-4-yl]-3-{3-[(2-hydroxyethyl)(methyl)amino]-2-oxo-1,2,3,4-tetrahydroquinolin-7-yl}urea] | 230 | 0 |
| COCCN(C)C1Cc2ccc(NC(=O)N[C@@H]3CC(C)(C)Oc4cc(F)ccc43)cc2NC1=O (stereo partly drawn) [Example 305, 1-[(4R)-7-fluoro-2,2-dimethyl-3,4-dihydro-2H-chromen-4-yl]-3-{3-[(2-methoxyethyl)(methyl)amino]-2-oxo-1,2,3,4-tetrahydroquinolin-7-yl}urea] | 2000 | 26 |
| COCCN(C)C1Cc2ccc(NC(=O)N[C@@H]3CC(CF)(CF)Oc4cc(Cl)ccc43)cc2NC1=O (stereo partly drawn) [Example 306, 1-[(4R)-7-chloro-2,2-bis(fluoromethyl)-3,4-dihydro-2H-chromen-4-yl]-3-{3-[(2-methoxyethyl)(methyl)amino]-2-oxo-1,2,3,4-tetrahydroquinolin-7-yl}urea] | 440 | 31 |
